Article PMC1247619 (Environmental Health Perspectives, 2004)

Tests used:
[1] = design: method as in McLachlan 1977; conditions: 14C-DES injected in pregnant mice; ref McLachlan 1977; cited from earlier work
[2] = test system: human and mouse ER-α; design: method as in Matthews et al. 2000; conditions: ref Matthews et al. 2000; cited from earlier work
[3] = molecular target: T1, hER-β (Homo sapiens, UniProt Q92731); test: In vitro estrogenic activity assay, stable HEK cell line with hER-β and ERE-luciferase reporter; type: cell-based
T1 construct: expressed in transfected cells
T1 sequence (Q92731 whole entry): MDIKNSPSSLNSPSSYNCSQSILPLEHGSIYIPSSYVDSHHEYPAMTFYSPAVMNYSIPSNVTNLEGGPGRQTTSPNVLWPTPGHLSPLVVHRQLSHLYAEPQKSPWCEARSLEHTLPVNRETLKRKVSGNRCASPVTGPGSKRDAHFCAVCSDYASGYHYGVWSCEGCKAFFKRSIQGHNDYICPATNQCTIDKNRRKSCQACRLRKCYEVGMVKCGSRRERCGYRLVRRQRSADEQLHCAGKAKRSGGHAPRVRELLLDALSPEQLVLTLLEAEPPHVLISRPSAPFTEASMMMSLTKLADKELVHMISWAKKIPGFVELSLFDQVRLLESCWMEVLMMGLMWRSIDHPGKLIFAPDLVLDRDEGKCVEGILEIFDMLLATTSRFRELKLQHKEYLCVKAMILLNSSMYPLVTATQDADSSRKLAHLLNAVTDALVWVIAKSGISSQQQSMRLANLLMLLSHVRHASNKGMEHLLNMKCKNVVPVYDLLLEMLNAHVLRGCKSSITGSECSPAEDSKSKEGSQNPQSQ
Method: (§1) Briefly, cells were plated in 96-well tissue culture plates (NUNC, Life Technologies, Breda, The Netherlands) in medium consisting of phenol red–free Dulbecco’s modified Eagle’s medium/F12 (1:1) medium containing 3 × 10^−8 M selenite, 10 μg/mL transferrin, 0.2% (wt/vol) bovine serum albumin, and 5% (wt/vol) dextran-coated charcoal-stripped fetal calf serum. […] Luciferase activity of 25 μL cell lysate was measured with the Luclite Luciferase Reporter gene assay kit (Perkin-Elmer, Brussels, Belgium) according to the manufacturer’s instructions using 25 μL Luclite solution on a Topcount liquid scintillation counter (Perkin-Elmer).
(§2) The in vitro dose–response activation curves obtained with the stable cell lines were fitted using the sigmoidal fit {y = a0 + a1/1 + exp[–(x – a2)/a3]} in Slidewrite Plus for Windows (version 3.0; BIS, Ridderkerk, The Netherlands), which determines the fitting coefficients by an iterative process minimizing the c2 merit function (least squares criterion). […] The cell line data shown are the average of at least two independent experiments with each experimental point performed in triplicate. Data are shown as a percentage of maximal induction by E2.

[4] = test system: uterine wet weight; conditions: cited from earlier work
[5] = pregnant mice, 100 mg/kg subcutaneously; ref Domoradzki et al. 2003; Shin et al. 2002; Uchida et al. 2002; cited from earlier work
[6] = design: method as in Takahashi and Oishi 2000; conditions: pregnant rats; ref Takahashi and Oishi 2000; cited from earlier work
[7] = test system: estrogen receptors (ERs); test: In vivo (in utero) luciferase measurement with IVIS imaging in transgenic ERE-luciferase embryos; design: species or system mouse; conditions: 10,000 μg/kg, 8 hr after exposure
Method: (§3) To obtain transgenic embryos, heterozygote transgenic males from line INS3 were mated with wild-type females (F1 from C57Bl/6J × CBA). Heterozygote males were used so that every litter would also contain wild type embryos, which could serve as an internal negative control. Females were checked daily for the presence of a vaginal plug, and when a plug was detected, that day was designated 0.5 day postcoitum (dpc).
(§4) Animal experiments were performed with approval of the Netherlands Academy of Arts and Sciences Animal Ethics Committee. The IVIS imaging experiments were done with additional approval of the Animal Ethics Committee of NV Organon.
(§5) We considered one litter as a statistical unit rather than one embryo because we assumed that all embryos in one litter were subject to the same variation of the compound injection and placental transfer. Therefore, the average ± SEM per litter was calculated, and these were then averaged to express the luciferase activity per group. All data were log-transformed and tested for normality with the Shapiro-Wilks test using SPSS 12.0 (SPSS, Chicago, IL, USA).

[8] = molecular target: T2, human ER-α (hER-α) (Homo sapiens, UniProt P03372); test: In vitro estrogenic activity assay, stable HEK cell line with hER-α and ERE-luciferase reporter; type: cell-based
T2 construct: expressed in transfected cells
T2 sequence (P03372 1-595): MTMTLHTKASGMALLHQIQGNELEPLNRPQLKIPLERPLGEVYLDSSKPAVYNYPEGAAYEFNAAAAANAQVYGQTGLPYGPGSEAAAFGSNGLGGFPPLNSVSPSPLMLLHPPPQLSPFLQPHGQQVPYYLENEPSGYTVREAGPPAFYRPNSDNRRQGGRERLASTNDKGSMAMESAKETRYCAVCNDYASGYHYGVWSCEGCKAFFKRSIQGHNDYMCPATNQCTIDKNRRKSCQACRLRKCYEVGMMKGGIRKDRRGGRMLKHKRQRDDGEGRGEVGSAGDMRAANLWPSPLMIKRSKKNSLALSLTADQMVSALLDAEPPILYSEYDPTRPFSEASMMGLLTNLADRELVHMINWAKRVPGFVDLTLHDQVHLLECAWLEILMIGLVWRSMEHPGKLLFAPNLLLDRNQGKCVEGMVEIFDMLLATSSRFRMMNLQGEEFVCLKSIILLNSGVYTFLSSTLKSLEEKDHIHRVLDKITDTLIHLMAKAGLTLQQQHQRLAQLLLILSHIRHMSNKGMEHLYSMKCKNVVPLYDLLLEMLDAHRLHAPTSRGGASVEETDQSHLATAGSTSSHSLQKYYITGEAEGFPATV
Method: as §1, §2

[9] = test system: ER; design: method as in Nagel et al. (2001); conditions: 1 mg/kg; ref Nagel et al. (2001); cited from earlier work
[10] = test system: estrogen receptors (ERs); test: Ex vivo luciferase measurement in lysates of transgenic embryos exposed in utero; design: species or system mouse
Method: as §3, §4
When embryos were isolated from the amniotic membranes, we kept tails separated and stored at –20°C for subsequent DNA isolation and polymerase chain reaction for presence of the transgene, as described previously ([Legler et al. 2000]). Only transgenic embryos were used for further luciferase measurement. Subsequently, embryos were thawed on ice and lysis buffer [1% (vol/vol) Triton X-100, 2.5 × 10^−2 M glycylglycine, 1.5 × 10^−2 M MgSO4, 4 × 10^−3 M EGTA, and 1 × 10^−3 M dithiothreitol (DTT)] was added. Next, samples were sonicated, the lysate centrifuged, and the supernatant collected. […] Luciferase activity was corrected for protein content as measured with the Bradford assay.
as §5

[11] = test system: estrogen receptors (ERs); conditions: adult transgenic animals; ref Lemmen et al. 2004; cited from earlier work

In the case of `CC/C(=C(/CC)c1ccc(O)cc1)c1ccc(O)cc1` [DES, diethylstilbestrol, reference compound], the “time of peak fetal plasma levels” value [1] is listed as 2 h and the “affinity of human versus mouse ER-α” value [2] is listed as “same affinity”.

In the case of `CC(C)(c1ccc(O)cc1)c1ccc(O)cc1` [BPA, bisphenol A], the “times less active than DES toward ER-β transactivation” value [3] is listed as 1,400 times, the “affinity of human versus mouse ER-α” value [2] is listed as “same affinity” and the “uterine wet weight response” value ([4]; 1 mg/kg, ref Nagel et al. (2001)) is listed as “did not induce”. The uterotrophic response ([4]; CD-1 mice, 100 mg/kg, ref Markey et al. 2001) was “induced”, the “activity in the uterine wet weight assay” value ([4]; CFLP mice, 0.5 mg/mouse (~ 16.7 mg/kg), ref Coldham et al. 1997) was “inactive” and the “toxicity in the uterine wet weight assay” value ([4]; mouse, in vivo, 167 mg/kg) was “toxic”. For the same compound, the “time after exposure at which detected in fetal sera, liver, brain, uterus and testes” value [5] was 30 min, the “time of peak concentration in fetal circulation” value [6] was 15 to 20 min and the “luciferase activity versus oil-exposed animals, IVIS” value [7] was “not statistically significant”. For the same compound, the “times less active than DES in activating ER-α” value [8] was 5,000 times, the “ER transcriptional activity in the adult uterus” value [9] was “significant increase” and the “luciferase activity versus oil-exposed controls, embryo lysates” value ([10]; 1,000 μg/kg, 8 hr after exposure) was “significantly higher”. The “luciferase activity versus oil-exposed controls, embryo lysates” value ([10]; 10,000 μg/kg, 8 hr after exposure) was “significantly higher”, the “dose at which in utero luciferase activation was significant from oil-exposed controls” value ([10]; 8 hr after exposure) was 1 mg/kg and the “luciferase activity versus oil-exposed animals, embryo lysates” value ([10]; 24 hr after exposure, BPA 10–10,000 μg/kg (Figure 2)) was “no difference”.

In the case of `C[C@]12CC[C@@H]3c4ccc(O)cc4CC[C@H]3[C@@H]1CC[C@@H]2O` [E2, 17β-estradiol], the “time of peak luciferase activity after exposure” value [11] is given as 8 h.
